The supplement of paper PMC4862054

Columns and labels:
Settings in all cases: 72 h
[1] = system: BT-474
Experimental: (§1)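 Drug sensitivity and resistance testing (DSRT) of breast cancer cell lines in 384-well plates, 5 concentrations in 10-fold dilutions over a compound-specific 10,000-fold range. After 72 h, cytotoxicity was read by CellTox Green fluorescence and viability by CellTiter-Glo luminescence (multiplexed), normalised to DMSO and benzethonium chloride controls. EC50 is the inflection point of the fitted dose-response curve (bottom asymptote free, so it can be relative for partial curves) and is censored at the highest tested concentration. Rows with DSS 0 (no meaningful response) were excluded.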

[2] = system: BT-549
Experimental: as §1

[3] = system: CAL-51
Experimental: as §1

[4] = system: MFM-223
Summary of the method: (§2)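 In this assay, breast cancer cell lines spent 72 h with compound at 5 concentrations in 10-fold steps over a compound-specific 10,000-fold range. The first readout was cell death by CellTox Green fluorescence, and the second was viability by CellTiter-Glo luminescence, each normalised per plate to 0.1 % DMSO and a positive kill control. EC50 came from the dose-response curves, censored at the top concentration.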

[5] = system: SK-BR-3
Summary of the method: as §2

[6] = system: BT-474; remark: listed apart in the source
Summary of the method: as §2

[7] = system: HDQ-P1
Summary of the method: as §2

[8] = system: MDA-MB-231
Summary of the method: as §2

[9] = system: MDA-MB-468
Summary of the method: as §2

[10] = system: MDA-MB-453
Summary of the method: as §2

[11] = system: CAL-120
Summary of the method: as §2

[12] = system: HCC1599
Summary of the method: as §2

[13] = system: BT-549; remark: listed apart in the source
Summary of the method: as §2

[14] = system: CAL-85-1
Summary of the method: as §2

[15] = system: MDA-MB-436
Summary of the method: as §2

[16] = system: CAL-51; remark: listed apart in the source
Summary of the method: as §2

[17] = system: DU-4475
Summary of the method: as §2

[18] = system: CAL-148
Summary of the method: as §2

[19] = system: HCC1937
Summary of the method: as §2

[20] = system: HCC1143
Summary of the method: as §2

[21] = system: MDA-MB-453; remark: listed apart in the source
Summary of the method: (§3)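 Viability of breast cancer cell lines was measured with CellTiter-Blue after 72 h of incubation on compound-loaded 384-well plates. Cells were seeded in 20 µl onto compound dissolved in 5 µl medium, and 2.5 µl reagent was added for 2 h at 37 °C before reading at 560/590 nm. EC50 was fitted from percent-inhibition dose-response data censored at the highest concentration, normalised per plate to vehicle and a positive kill control, with zero drug sensitivity score rows dropped.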

[22] = system: CAL-148; remark: listed apart in the source
Summary of the method: as §3

[23] = system: MDA-MB-231; remark: listed apart in the source
Summary of the method: as §3

[24] = system: BT-549; remark: listed apart in the source
Summary of the method: as §3

[25] = system: HDQ-P1; remark: listed apart in the source
Summary of the method: as §3

[26] = system: DU-4475; remark: listed apart in the source
Summary of the method: as §3

[27] = system: SK-BR-3; remark: listed apart in the source
Summary of the method: as §3

[28] = system: MDA-MB-468; remark: listed apart in the source
Summary of the method: as §3

[29] = system: CAL-120; remark: listed apart in the source
Summary of the method: as §3

[30] = system: HCC1599; remark: listed apart in the source
Summary of the method: as §3

[31] = system: HCC1143; remark: listed apart in the source
Summary of the method: as §3

[32] = system: CAL-51; remark: listed apart in the source
Summary of the method: as §3

[33] = system: MFM-223; remark: listed apart in the source
Summary of the method: as §3

[34] = system: CAL-85-1; remark: listed apart in the source
Summary of the method: as §3

[35] = system: BT-474; remark: listed apart in the source
Summary of the method: as §3

[36] = system: MDA-MB-436; remark: listed apart in the source
Summary of the method: as §3

[37] = system: Hs578T
Summary of the method: as §3

[38] = system: HCC1937; remark: listed apart in the source
Summary of the method: as §3

[39] = system: MDA-MB-468; remark: listed apart in the source
Experimental: as §1

| EC50, CellTiter-Blue viability [21] | EC50, CellTiter-Blue viability [23] | EC50, CellTiter-Blue viability [24] | EC50, CellTiter-Blue viability [27] | EC50, CellTiter-Blue viability [28] | EC50, CellTiter-Blue viability [31] | EC50, CellTiter-Blue viability [35] | Compound | EC50, CellTiter-Blue viability [22] | EC50, CellTiter-Blue viability [25] | EC50, CellTiter-Blue viability [26] | EC50, CellTiter-Blue viability [29] | EC50, CellTiter-Blue viability [32] | EC50, CellTiter-Blue viability [33] | EC50, CellTiter-Blue viability [34] | also measured |
| --- | --- | --- | --- | --- | --- | --- | --- | --- | --- | --- | --- | --- | --- | --- | --- |
| 2180 nM |  | 2240 nM | 2160 nM | 2380 nM | 2280 nM |  | CC[C@H](Nc1ncnc2[nH]cnc12)c1nc2cccc(F)c2c(=O)n1-c1ccccc1 [CAL-101] |  | 5250 nM | 5560 nM | 8280 nM |  |  |  | EC50, CellTiter-Blue viability [30]: 94.2 nM |
| 1.68 nM | 20.1 nM | 6.08 nM |  | 3.01 nM | 4.08 nM | 17.5 nM | O=C(/C=C/c1cccnc1)NCCCCC1CCN(C(=O)c2ccccc2)CC1 [FK-866] | 34.4 nM | 21.3 nM | 20.1 nM | 8.66 nM | 12.6 nM | 4.05 nM | 25.7 nM | EC50, CellTiter-Blue viability [30]: 13.9 nM; EC50, CellTiter-Blue viability [36]: 5.08 nM; EC50, CellTiter-Blue viability [37]: 3.75 nM; EC50, CellTiter-Blue viability [38]: 80.3 nM |
| 1260 nM | 614 nM | 1440 nM | 1520 nM | 1430 nM | 1520 nM | 1760 nM | CCN(CC)CCCC(C)Nc1c2ccc(Cl)cc2nc2ccc(OC)cc12 (stereo not drawn) [Mepacrine] | 1140 nM | 833 nM | 1600 nM | 1120 nM | 1950 nM | 2220 nM | 1800 nM | EC50, CellTox Green [39]: > 50000 nM; EC50, CellTiter-Blue viability [36]: 1290 nM; EC50, CellTiter-Blue viability [37]: 1980 nM; EC50, CellTiter-Blue viability [38]: 519 nM |

Further lines, the compound ahead of its results:

| Compound | EC50, CellTiter-Blue viability [21] | EC50, CellTiter-Blue viability [23] | EC50, CellTiter-Blue viability [24] | EC50, CellTiter-Blue viability [27] | EC50, CellTiter-Blue viability [28] | EC50, CellTiter-Blue viability [31] | EC50, CellTiter-Blue viability [35] | EC50, CellTiter-Blue viability [22] | EC50, CellTiter-Blue viability [25] | EC50, CellTiter-Blue viability [26] | EC50, CellTiter-Blue viability [29] | EC50, CellTiter-Blue viability [32] | EC50, CellTiter-Blue viability [33] | EC50, CellTiter-Blue viability [34] | also measured |
| --- | --- | --- | --- | --- | --- | --- | --- | --- | --- | --- | --- | --- | --- | --- | --- |
| C=CCc1cccc(/C=N/NC(=O)CN2CCN(Cc3ccccc3)CC2)c1O [PAC-1] |  |  |  |  |  |  |  |  |  |  |  |  |  |  | EC50, CellTox Green [1]: 3520 nM; EC50, CellTox Green [2]: 1190 nM; EC50, CellTox Green [3]: 413 nM; EC50, CellTiter-Glo [4]: 8680 nM; EC50, CellTiter-Glo [5]: 5200 nM; EC50, CellTiter-Glo [6]: 3910 nM; EC50, CellTiter-Glo [7]: 4980 nM; EC50, CellTiter-Glo [8]: 3100 nM; EC50, CellTiter-Glo [9]: 4580 nM; EC50, CellTiter-Glo [10]: 2610 nM; EC50, CellTiter-Glo [11]: 3790 nM; EC50, CellTiter-Glo [12]: 7690 nM; EC50, CellTiter-Glo [13]: 1230 nM; EC50, CellTiter-Glo [14]: 5250 nM; EC50, CellTiter-Glo [15]: 3480 nM; EC50, CellTiter-Glo [16]: 1620 nM; EC50, CellTiter-Glo [17]: 4350 nM; EC50, CellTiter-Glo [18]: 6670 nM; EC50, CellTiter-Glo [19]: 5300 nM; EC50, CellTiter-Glo [20]: 6700 nM |
| C1CN1c1nc(N2CC2)nc(N2CC2)n1 [Triethylenemelamine] | 9220 nM | 698 nM | 9400 nM |  |  |  |  | 3220 nM |  |  |  |  |  |  |  |
| O=C(O)C1(C(=O)O)CCC1.[NH2-].[NH2-].[Pt+2] [Carboplatin] | 7350 nM |  |  |  |  |  |  | 5150 nM |  |  |  | 9460 nM | 9690 nM |  |  |
| C=CC(=O)N1CCC[C@@H](n2nc(-c3ccc(Oc4ccccc4)cc3)c3c(N)ncnc32)C1 | 18.5 nM |  |  | 8.82 nM | 71.1 nM |  | 14.7 nM |  | 407 nM |  |  |  |  | 849 nM |  |
